Measurements: US20050031557A1, “Oral administration of beta-carotene, lycopene and lutein for human skin protection” (priority 1999, published 2005)

Tested on: healthy skin of light type II
Assay: Photoprotection study in volunteers with oral carotinoid supplementation over 12 weeks
Type: in vivo, human
Description: The carotinoid absorption and photoprotection studies were carried out using a panel of 36 volunteers with healthy skin of light type II (Fitzpatrick & Pathak test). The starting values for each volunteer were determined at the beginning of the 12-week study. An interim study was conducted after 6 weeks and the final study after 12 weeks. The volunteers were divided into three groups of twelve who received the following daily doses: • 1st group: 25 mg Betatene® (corresponds to 24 mg β-carotene) • 2nd group: 8.3 mg Betatene® (corresponds to 8 mg β-carotene), 8 mg lycopene, 8 mg lutein (Xangold®) • 3rd group: placebo capsules.
The carotinoids were administered in soft gelatine capsules with 140 mg soybean oil.
The concentration of β-carotene, lycopene and lutein in the skin was determined by reflection spectrometry which was carried out on an area of 1 cm^2 of the forehead, the back of the hand, the palm of the hand, the inside of the lower arm and the back. The change in color of the skin during supplementation was differentiated by a Minolta chromameter (L, a, b system) into reddening of the skin (a values), yellow component (b values) and lightness of the skin (L values). The concentration of β-carotene, lycopene and lutein in the serum was determined by high-pressure liquid chromatography (HPLC). […]

CC1=C(/C=C/C(C)=C/C=C/C(C)=C/C=C/C=C(C)/C=C/C=C(C)/C=C/C2=C(C)CCCC2(C)C)C(C)(C)CCC1 [β-carotene]
photoprotection of the skin in relation to the blank value (in words) (12 weeks of daily oral dosing, versus placebo group 3): doubles the photoprotection of the skin | Photoprotection (average of 12 volunteers per group after 12 weeks of daily oral dosing in soft gelatine capsules with soybean oil, relative to blank value (group 3, no carotinoids = 100), group 1: 24 mg β-carotene, group 2: 8 mg each of β-carotene, lycopene, lutein): 200 %-rel.
